Here are results for six compounds from patent publication US12178821B2, “Combination therapies for the treatment of cancer” (Curis, Inc., priority 2021, dated 2024).

Data set [1] relates to F-36P. Briefly: CellTiter Glo cell viability assay, GI50, 72 hrs. The class given is cell-based. How it is done:
(§1) CellTiter Glo cell viability assay was used to evaluate the antitumor effects of Compound 1 in combination with AML SOC drugs daunorubicin, Ara-C, decitabine, azacitidine and venetoclax in FLT3-WT AML cell lines THP-1, F-36P, OCl-AML2 and GDM-1. GI50 (the concentration for 50% of maximal inhibition of cell proliferation) was determined for each drug in AML cell lines.
(§2) Cells were treated for 72 hrs. Relative cell viability was measured by CellTiter Glo assay (Promega, Madison, WI) at 0 and at 72 hrs. GI50 was calculated using GraphPad Prism 8.0 software.

Data set [2] concerns GDM-1. Description: CellTiter Glo cell viability assay, GI50, 72 hrs. The class given is cell-based. As to the method:
as §1, §2
In general terms: ATP-based viability assays read luminescence as a measure of living cells.

Data set [3] relates to OC1-AML2. Description: CellTiter Glo cell viability assay, GI50, 72 hrs. The class given is cell-based. How it is done: as §1, §2
Data set [4] has as its system THP-1. Briefly: CellTiter Glo cell viability assay, GI50, 72 hrs. The class given is cell-based. As to the method:
as §1, §2

Data set [5] concerns FLT3-WT AML cell lines THP-1, F-36P, OCl-AML2 and GDM-1. Briefly: CellTiter Glo combination experiments summarised over the cell line panel. The class given is cell-based. The conditions noted are these: 4 FLT3-WT AML cell lines, 96 hrs, clinically relevant drug concentration. As to the method: CellTiter Glo cell viability assay was used to evaluate the antitumor effects of Compound 1 in combination with AML SOC drugs daunorubicin, Ara-C, decitabine, azacitidine and venetoclax in FLT3-WT AML cell lines THP-1, F-36P, OCl-AML2 and GDM-1. GI50 (the concentration for 50% of maximal inhibition of cell proliferation) was determined for each drug in AML cell lines. Either GI50 (below peak plasma concentration) or peak plasma concentration (if GI50 was higher than peak plasma concentration) of each drug was used as clinically relevant concentration for combination experiments.
Cells were treated continuously with clinically relevant drug concentration for 96 hrs. Relative cell viability was measured by CellTiter Glo assay (Promega, Madison, WI) at 0 and at 96 hrs according to manufacturer's instructions. All values are presented as mean±SE. Cell viability assay data were analyzed with one-way ANOVA. P values less than 0.05 were considered significant. Statistical analysis was performed using GraphPad Prism 8.0 software. + Less than 50% growth inhibition, p<0.05; ++ 50-100% growth inhibition, p<0.05; +++ Induction of cell death (cytotoxic effect), p<0.05; NS, not significant; ND, not defined. *Venetoclax resistant cell line, **Azacitidine/Decitabine resistant cell line. Clinically relevant conc (peak plasma conc): Compound 1-10 μM; Venetoclax—1 μM; and Azacitidine—4 μM.

For data set [6] the following is noted: concentration used in the combination experiments; cited from earlier work.
Setting [7] is: F-36P cells, treated for 72 hrs, CellTiter Glo, read-out: GI50.
Where [8] appears, read: Homo sapiens, GDM-1 cells, treated for 72 hrs, CellTiter Glo, read-out: GI50.
Setting [9] is: OC1-AML2 cells, treated for 72 hrs, CellTiter Glo, read-out: GI50.
Where [10] appears, read: Homo sapiens, THP-1 cells, treated for 72 hrs, CellTiter Glo, read-out: GI50.

SMILES strings stand for the structures. Entries after “also recorded” stand apart in the source; their conditions may differ. Like-named read-outs stand apart in the source and are kept apart here.

In the case of `Cc1cc(-c2nc(C(=O)Nc3cc4oc(N5CCOCC5)nc4nc3N3CC[C@@H](O)C3)co2)ccn1` [Compound 1], the GI50 in data set [1] (setting [7]) was > 20000 nM; in data set [2] (setting [8]), > 20000 nM; in data set [3] (setting [9]) it was 13000 nM; in data set [4] (setting [10]), > 20000 nM. The “antitumor effect of the combination over the cell line panel, in words” value in data set [5] was “potentiated antitumor effects of azacitidine in 3 of 4 FLT3-WT AML cell lines; also recorded: significantly potentiated antitumor effects of azacitidine+venetoclax in all AML FLT3-WT cell lines”. Also, the “Clinically relevant conc (peak plasma conc)” value (“Clinically relevant conc” below) in data set [6] was 10 µM.
Take `Nc1ncn([C@H]2C[C@H](O)[C@@H](CO)O2)c(=O)n1` [Decitabine]: the GI50 is 200 nM in data set [1] (72 h); 80 nM in data set [2] (Homo sapiens, GDM-1, 72 h); 18000 nM in data set [3] (72 h); 150 nM in data set [4] (Homo sapiens, THP-1, 72 h).
On to `Nc1ncn([C@@H]2O[C@H](CO)[C@@H](O)[C@H]2O)c(=O)n1` [Azacitidine], for which the 50% growth inhibitory concentration (GI50) came out at 4000 nM in data set [1] (setting [7]), 2000 nM in data set [2] (setting [8]), 30000 nM in data set [3] (setting [9]) and 3000 nM in data set [4] (setting [10]). For the same compound, the “resistance of the cell line to the treatment” value in data set [3] (OCl-AML2) was “resistant”. Moreover, in data set [6], the “Clinically relevant conc” value is 4 µM.
As to `COc1cccc2c1C(=O)c1c(O)c3c(c(O)c1C2=O)C[C@@](O)(C(C)=O)C[C@@H]3O[C@H]1C[C@H](N)[C@H](O)[C@H](C)O1` [Daunorubicin], the GI50 in data set [1] (72 h) is 100 nM; in data set [2] (Homo sapiens, GDM-1, 72 h), 10 nM; in data set [3] (72 h), 5 nM; in data set [4] (Homo sapiens, THP-1, 72 h), 5 nM.
Regarding `Nc1ccn([C@@H]2O[C@H](CO)[C@@H](O)[C@@H]2O)c(=O)n1` [Ara-C], the 50% growth inhibitory concentration (GI50) is 150 nM in data set [1] (setting [7]); 5 nM in data set [2] (GDM-1 cells, treated for 72 hrs, CellTiter Glo, read-out: GI50); 4000 nM in data set [3] (setting [9]); 150 nM in data set [4] (THP-1 cells, treated for 72 hrs, CellTiter Glo, read-out: GI50).
`CC1(C)CCC(CN2CCN(c3ccc(C(=O)NS(=O)(=O)c4ccc(NCC5CCOCC5)c([N+](=O)[O-])c4)c(Oc4cnc5[nH]ccc5c4)c3)CC2)=C(c2ccc(Cl)cc2)C1` [Venetoclax]: the concentration for 50% growth inhibition (GI50) stood at 18000 nM in data set [1] (setting [7]), 5 nM in data set [2] (setting [8]), 2 nM in data set [3] (setting [9]) and 18000 nM in data set [4] (setting [10]). In addition, in data set [6], the “Clinically relevant conc” value is 1 µM.

As usually defined, the GI50 is the concentration at which growth is held to half of that of the control.
